Reference: patent publication US7288273B1, “Gallotannins and ellagitannins as regulators of cytokine release” (The Penn State Research Foundation, priority 2000, dated 2007)

How the values were obtained:
[1] = system: IL-1β secretion from h-PBMC's; assay: IL-1β release from h-PBMC's, ELISA; type: cell-based, human; settings: for IL-1β secreted in the presence of 17c-20c: h-PBMC's 2nd subject, ± SD
Procedure, shortened: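 Human peripheral blood mononuclear cells from healthy donors were isolated, checked for viability by Trypan Blue exclusion, and set at 1×10^6 cells/well in 0.5 mL RPMI. The tannin was added from an HBSS stock, and plates were incubated at 37° C. in a humidified 5% CO2 atmosphere. Supernatants were taken after centrifugation at 400 g, and secreted IL-1β was quantified by a commercial ELISA. LPS was the positive control and untreated cells the negative control.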

[2] = system: LPS induced TNF-α secretion from h-PBMC's; assay: Inhibition of LPS induced TNF-α secretion from h-PBMC's; type: cell-based, human; settings: for TNF-α secreted in the presence of LPS and 17c-20c: LPS 5 μg/mL, compound 10 μg/mL added after 45 minutes, h-PBMC's 3rd subject; for TNF-α secreted in the presence of LPS and 17c-20c / TNF-α secreted in the presence of LPS and 19c / 20c / TNF-α secreted in the presence of LPS and 18c-20c: ± SD; for TNF-α secreted in the presence of LPS and 19c / 20c: 8 h incubation; for TNF-α secreted in the presence of LPS and 19c / 20c / TNF-α secreted in the presence of LPS and 18c-20c: 4th subject
Procedure, shortened: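 Human PBMCs stimulated with LPS (5 or 10 μg/mL), compounds added at varying concentrations 45 min after LPS or simultaneously; supernatants harvested after 8 h. Secreted TNF-α normalized as percent of maximum secretion with LPS alone.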

## O=C(OC[C@H]1O[C@@H](OC(=O)c2ccc(-c3ccc(C(=O)O[C@@H]4O[C@H](COC(=O)c5cc(O)c(O)c(O)c5)[C@@H](OC(=O)c5cc(O)c(O)c(O)c5)[C@H](OC(=O)c5cc(O)c(O)c(O)c5)[C@H]4OC(=O)c4cc(O)c(O)c(O)c4)cc3)cc2)[C@H](OC(=O)c2cc(O)c(O)c(O)c2)[C@@H](OC(=O)c2cc(O)c(O)c(O)c2)[C@@H]1OC(=O)c1cc(O)c(O)c(O)c1)c1cc(O)c(O)c(O)c1 [Compound 19c, 1,1′-O-2.2′,3,3′,4,4′,6,6′-Tetrakis(3,4,5-trihyroxybenzoyl)-β,β′-D,D′-glucopyranosylbiphenyl-4.4′-diester]
[1]; compound 0.6 μM
  IL-1β secreted in the presence of 17c-20c: 54.2 ± 57.5 pg/mL
[1]; compound 2.8 μM
  IL-1β secreted in the presence of 17c-20c: 60.9 ± 58.6 pg/mL
[1]; compound 5.6 μM
  IL-1β secreted in the presence of 17c-20c: 14.5 ± 25.2 pg/mL
[1]; compound 11.2 μM
  IL-1β secreted in the presence of 17c-20c: 9.4 ± 7.0 pg/mL
[1]; compound 16.8 μM
  IL-1β secreted in the presence of 17c-20c: 41.3 ± 14.8 pg/mL
[1]; compound 22.5 μM
  IL-1β secreted in the presence of 17c-20c: 23.2 ± 18.0 pg/mL
[1]; compound 28.1 μM
  IL-1β secreted in the presence of 17c-20c: 41.3 ± 6.0 pg/mL
[1]; h-PBMC's
  IL-1β secretion from h-PBMC's, in words: lowest amounts of IL-1β production
[2]; time 1 h
  TNF-α secreted in the presence of LPS and 17c-20c: 328.2 ± 61.5 pg/mL
[2]; time 4 h
  TNF-α secreted in the presence of LPS and 17c-20c: 1880.0 ± 20.1 pg/mL
[2]; time 8 h
  TNF-α secreted in the presence of LPS and 17c-20c: 1921.5 ± 399.8 pg/mL
[2]; time 12 h
  TNF-α secreted in the presence of LPS and 17c-20c: 2229.3 ± 353.1 pg/mL
[2]; time 16 h
  TNF-α secreted in the presence of LPS and 17c-20c: 2561.2 ± 718.8 pg/mL
[2]; time 24 h
  TNF-α secreted in the presence of LPS and 17c-20c: 2146.9 ± 69.3 pg/mL
[2]; LPS 10 μg/mL, substrate added after 45 minutes, 8 hours
  maximum inhibition of LPS induced TNF-α secretion: 25%
[2]; compound 0.6 μM added 45 minutes after LPS 1 μg/mL
  TNF-α secreted in the presence of LPS and 19c / 20c: 85.1 ± 10.3 % max. response
[2]; compound 0.6 μM added 45 minutes after LPS 10 μg/mL, 8 hours
  TNF-α secreted in the presence of LPS and 18c-20c: 114.3 ± 11.9 % max. response
[2]; compound 1.7 μM added 45 minutes after LPS 1 μg/mL
  TNF-α secreted in the presence of LPS and 19c / 20c: 78.3 ± 9.1 % max. response
[2]; compound 2.8 μM added 45 minutes after LPS 10 μg/mL, 8 hours
  TNF-α secreted in the presence of LPS and 18c-20c: 83.5 ± 26.1 % max. response
[2]; compound 3.4 μM added 45 minutes after LPS 1 μg/mL
  TNF-α secreted in the presence of LPS and 19c / 20c: 81.8 ± 15.9 % max. response
[2]; compound 5.6 μM added 45 minutes after LPS 1 μg/mL
  TNF-α secreted in the presence of LPS and 19c / 20c: 57.5 ± 14.1 % max. response
[2]; compound 5.6 μM added 45 minutes after LPS 10 μg/mL, 8 hours
  TNF-α secreted in the presence of LPS and 18c-20c: 79.4 ± 15.1 % max. response
[2]; compound 11.2 μM added 45 minutes after LPS 1 μg/mL
  TNF-α secreted in the presence of LPS and 19c / 20c: 57.4 ± 7.3 % max. response
[2]; compound 11.2 μM added 45 minutes after LPS 10 μg/mL, 8 hours
  TNF-α secreted in the presence of LPS and 18c-20c: 92.4 ± 21.4 % max. response
[2]; compound 22.4 μM added 45 minutes after LPS 10 μg/mL, 8 hours
  TNF-α secreted in the presence of LPS and 18c-20c: 73.0 ± 12.6 % max. response
